Measured values from patent publication US5789434A, “Derivatives of substituted 4-biarylbutyric acid as matrix metalloprotease inhibitors” (priority 1995, dated 1998).

What was measured:
Type in all cases: biochemical
MMP-3 = target: T1, MMP-3 (Homo sapiens, UniProt P08254); experiment: Automated MMP Profiling Assay, MMP-3 fluorogenic; conditions: for IC50: 96-well automated, P218
T1 construct: Truncated Prostromelysin-257 was expressed in a soluble form in E.coli; made in house; host or cells: E. coli
T1 sequence (P08254 100-274 limits assumed): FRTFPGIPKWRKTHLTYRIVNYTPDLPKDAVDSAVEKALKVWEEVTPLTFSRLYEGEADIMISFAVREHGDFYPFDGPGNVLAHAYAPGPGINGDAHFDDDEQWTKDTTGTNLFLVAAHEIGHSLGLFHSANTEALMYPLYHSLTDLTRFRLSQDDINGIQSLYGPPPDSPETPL
From the text: This assay with each invention compound was run with the three enzymes MMP-3, MMP-9 and MMP-2 in parallel as adapted for a 96-well microtitre plate using a Hamilton A® workstation.

MMP-9 = target: T2, MMP-9 (Homo sapiens, UniProt P14780); experiment: Automated MMP Profiling Assay, MMP-9 fluorogenic; conditions: for IC50: 96-well automated, P218
T2 construct: from tissue; host or cells: human polymorphonuclear leukocytes (PMN) from whole blood (New York Blood Center), PMA-stimulated supernatant
T2 sequence (P14780 107-707 limits assumed): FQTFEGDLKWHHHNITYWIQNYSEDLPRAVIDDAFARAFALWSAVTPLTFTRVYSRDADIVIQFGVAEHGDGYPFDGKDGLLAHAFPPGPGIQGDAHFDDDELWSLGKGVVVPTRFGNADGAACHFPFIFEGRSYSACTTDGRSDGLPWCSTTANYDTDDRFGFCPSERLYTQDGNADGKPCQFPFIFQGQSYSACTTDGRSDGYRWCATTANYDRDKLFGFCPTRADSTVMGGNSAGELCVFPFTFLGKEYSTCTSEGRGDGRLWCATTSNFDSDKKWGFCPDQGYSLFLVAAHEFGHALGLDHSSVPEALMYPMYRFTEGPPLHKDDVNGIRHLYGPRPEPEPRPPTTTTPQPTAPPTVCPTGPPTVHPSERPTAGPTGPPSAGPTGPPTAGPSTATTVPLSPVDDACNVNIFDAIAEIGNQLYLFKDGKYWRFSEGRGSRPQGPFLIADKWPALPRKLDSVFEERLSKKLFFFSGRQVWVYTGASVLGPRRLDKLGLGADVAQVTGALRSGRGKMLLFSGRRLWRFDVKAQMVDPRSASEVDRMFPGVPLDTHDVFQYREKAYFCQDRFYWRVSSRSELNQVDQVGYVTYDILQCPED
Protocol: Briefly, polymorphonuclear leukocytes (PMN) preparations were isolated as described above from 3 or more units of freshly drawn whole blood obtained from the New York Blood Center (New York, N.Y.). Cells were resuspended in phosphate buffered saline (PBS) containing 100 ng/ml phorbol myristate acetate (PMA) in the presence of 50 mM diisopropylfluorophospate (DFP), 1 μg/ml leupeptin and aprotinin, and 1 mg/ml catalase for 1 hr at 37° C. Supernatants were collected by centrifugation (300×g) and the samples were frozen at -70° C. All chromatographic methods were performed at 4° C. Thawed samples were concentrated 5-fold using an Amicon chamber equipped with a YM-10 membrane. The concentrate was pressure dialyzed against 0.02M Tris-HCl, 0.1M NaCl, 1 mM CaCl2, 1 μM ZnCl2, 0.001% Brij-35, 0.02% sodium azide (NaN3), pH 7.5 and applied to DEAE ion exchange chromatography resin which was previously equilibrated with the same buffer at a flow rate of 0.4 ml/min. The column was extensively washed with the same buffer and gelatinase was eluted as 4 ml fractions from the column with 0.02M Tris-HCl, 0.5M NaCl, 1 mM CaCl2, 1 μM ZnCl2, 0.001% Brij-35, 0.02% NaN3, pH 7.5. Gelatinase containing fractions were observed by gelatin zymography (see below), loaded onto a gelatin agarose affinity resin and washed with the same buffer. Gelatinase activity was eluted at a flow rate of 1 ml/min from the column as 1 ml fractions with 0.02M Tris-HCl, 1M NaCl, 1 mM CaCl2, 1 μM ZnCl2, 0.001% Brij-35, 0.02% NaN3, pH 7.5 containing 10% dimethyl sulfoxide (DMSO). The fractions containing gelatinase activity were pooled and dialyzed against 0.005M Tris-HCl, 5 mM NaCl, 0.5 mM CaCl2, 0.1 μM ZnCl2, 0.001% Brij-35, pH 7.4. The protein content associated with material was determined with a micro-BCA assay (Pierce, Rockford, Ill.), lyophilized and reconstituted to a desired working concentration (100 μg/ml).
This assay was run with a protocol analogous to that reported for MMP-3 inhibition using the synthetic peptide P218 and each of the three enzymes and measuring quenched fluorescence. This assay with each invention compound was run with the three enzymes MMP-3, MMP-9 and MMP-2 in parallel as adapted for a 96-well microtitre plate using a Hamilton A® workstation.

MMP-2 = target: T3, MMP-2 (Homo sapiens, UniProt P08253); experiment: Automated MMP Profiling Assay, MMP-2 fluorogenic; conditions: 96-well automated, P218; read-out: MMP-2 Fluorogenic IC50 (profiling)
T3 sequence (P08253 110-660): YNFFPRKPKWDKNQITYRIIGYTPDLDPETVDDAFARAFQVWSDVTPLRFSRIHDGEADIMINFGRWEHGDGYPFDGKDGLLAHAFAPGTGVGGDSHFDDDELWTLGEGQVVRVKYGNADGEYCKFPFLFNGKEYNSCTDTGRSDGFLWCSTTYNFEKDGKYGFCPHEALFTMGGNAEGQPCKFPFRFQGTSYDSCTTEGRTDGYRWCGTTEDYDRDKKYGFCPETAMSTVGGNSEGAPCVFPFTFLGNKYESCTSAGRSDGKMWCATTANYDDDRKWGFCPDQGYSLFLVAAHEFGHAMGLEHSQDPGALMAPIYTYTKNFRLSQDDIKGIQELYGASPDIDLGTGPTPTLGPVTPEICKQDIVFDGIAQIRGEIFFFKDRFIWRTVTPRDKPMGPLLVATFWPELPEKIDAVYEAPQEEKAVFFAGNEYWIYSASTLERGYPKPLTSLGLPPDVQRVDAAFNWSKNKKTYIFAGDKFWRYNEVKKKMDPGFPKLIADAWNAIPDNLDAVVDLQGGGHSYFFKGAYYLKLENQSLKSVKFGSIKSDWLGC

SMILES	IC50 (MMP-3)	IC50 (MMP-9)	IC50 (MMP-2)	inhibition at 5 µM (MMP-9)	inhibition at 5 µM (MMP-3; at 5 μM)
CCN(CC)C(=O)c1ccc(CCC(CC(=O)c2ccc(-c3ccc(Cl)cc3)cc2)C(=O)O)cc1 (stereo not drawn) [Example 151, [1,1'-Biphenyl]-4-butanoic acid, 4'-chloro-α-[2-[4-[(diethylamino)carbonyl]phenyl]ethyl]-γ-oxo-]	371 nM	607 nM	70 nM		
O=C(CC(CCCc1ccccc1)C(=O)O)c1ccc(-c2ccc(OCc3cccc(Cl)c3)cc2)cc1 (stereo not drawn) [Example 106, [1,1'-Biphenyl]-4-butanoic acid, 4'-[(3-chlorophenyl)methoxy]-γ-oxo-α-(3-phenylpropyl)-]	57 nM	622 nM	43 nM		
COCOC[C@@H]1CC[C@H](C(=O)c2ccc(-c3ccc(Cl)cc3)cc2)[C@H]1C(=O)O (relative stereo) [Example 364]	46 nM	180 nM	40 nM		
O=C(CC(CCc1cccc(I)c1)C(=O)O)c1ccc(-c2ccc(Cl)cc2)cc1 (stereo not drawn) [Example 127, [1,1'-Biphenyl]-4-butanoic acid, 4'-chloro-α[2-(3-iodophenyl)ethyl]-γ-oxo-]	605 nM	1220 nM	40 nM		
CCCCCOc1ccc(-c2ccc(C(=O)CC(CCCc3ccccc3)C(=O)O)cc2)cn1 (stereo not drawn) [Example 71, Benzenepentanoic acid, α-[2-oxo-2-[4-[6-(pentyloxy)-3-pyridinyl]phenyl]ethyl]-]	1160 nM		969 nM	24%	
COc1ccc2c(c1)C(=O)N(CCC(CC(=O)c1ccc(-c3ccc(Cl)cc3)cc1)C(=O)O)C2=O (stereo not drawn) [Example 422, 2H-Isoindole-2-butanoic acid, α-[2-(4'chloro[1,1'-biphenyl]-4-yl)-2-oxoethyl]-1,3-dihydro-5-methoxy-1,3-dioxo-]	8.4 nM	1.6 nM	14 nM		
COC/C=C\c1ccc(-c2ccc(C(=O)CC(CCCc3ccccc3)C(=O)O)cc2)cc1 (stereo not drawn) [Example 354, [1,1'-Biphenyl]-4-butanoic acid, 4'-(3-methoxy-1-propenyl)-γ-oxo-α-(3-phenylpropyl)-, (Z)-]	577 nM	1710 nM	76 nM		
CCCC/C=C\c1ccc(-c2ccc(C(=O)CC(CCCc3ccccc3)C(=O)O)cc2)cc1 (stereo not drawn) [Example 356, [1,1'-Biphenyl]-4-butanoic acid, 4'-(1-hexenyl)-γ-oxo-α-(3-phenylpropyl)-, (Z)-]			188 nM	14%	45%
O=C(CC(CCN1C(=O)c2cccc(O)c2C1=O)C(=O)O)c1ccc(-c2ccc(Cl)cc2)cc1 (stereo not drawn) [Example 421, 2H-Isoindole-2-butanoic acid, α-[2-(4'chloro[1,1'-biphenyl]-4-yl)-2-oxoethyl]-1,3-dihydro-4-hydroxy-1,3-dioxo-]	12 nM	1.7 nM	0.75 nM		
CCOc1ccc(-c2ccc(C(=O)CC(CCN3C(=O)CCC3=O)C(=O)O)cc2)cc1 (stereo not drawn) [Example 412, 1-Pyrrolidinebutanoic acid, α-[2-(4'-ethoxy[1,1'-biphenyl]-4-yl)-2-oxoethyl]-2,5-dioxo-]	84 nM	41 nM	10 nM		
CCCCC(=O)Nc1ccc(-c2ccc(C(=O)CC(CCc3ccccc3)C(=O)O)cc2)cc1 (stereo not drawn) [Example 140, [1,1'-Biphenyl]-4-butanoic acid, γ-oxo-4'-[(1-oxopentyl)amino]-α-(2-phenylethyl)-]	1030 nM	> 1250 nM	242 nM		
O=C(CC(CN1C(=O)c2ccccc2C1=O)C(=O)O)c1ccc(-c2ccc(Cl)cc2)cc1 (stereo not drawn) [Example 276, 2H-Isoindole-2-propanoic acid, α-[2-(4'-chloro[1,1'-biphenyl]-4-yl)-2-oxoethyl]-1,3-dihydro-1,3-dioxo-]	262 nM	275 nM	39 nM		
Cc1ccc(C(=O)OC[C@@H]2CC[C@H](C(=O)c3ccc(-c4ccc(Cl)cc4)cc3)[C@H]2C(=O)O)cc1 (relative stereo) [Example 380, Benzoic acid, 4-methyl-, [2-carboxy-3-[(4'-chloro[1,1'-biphenyl]-4-yl)carbonyl]cyclopentyl]methyl ester, (1α,2β,3α)-]	46 nM	40 nM	69 nM		
CCCCCOc1ccc(-c2ccc(C(=O)[C@H]3CC[C@@H](Cc4ccccc4)[C@@H]3C(=O)O)cc2)cc1 [Example 324, Cyclopentanecarboxylic acid, 2-[[4'-(pentyloxy)[1,1'-biphenyl]-4-yl]carbonyl]-5-(phenylmethyl)-, [1S-(1α,2β,5β)]-]	46 nM	343 nM	8.1 nM		
O=C(CC(CCNC(=O)c1ccccc1C(=O)O)C(=O)O)c1ccc(-c2ccc(Cl)cc2)cc1 (single isomer, unassigned) [Example 280, [1,1'-Biphenyl]-4-butanoic acid, α-[2-[(2-carboxybenzoyl)amino]ethyl]-4'-chloro-γ-oxo-]	146 nM	66 nM	29 nM		
O=C(CC(CCc1ccccc1)C(=O)O)c1ccc(-c2ccc(O)cc2)cc1 (stereo not drawn) [Example 155, [1,1'-Biphenyl]-4-butanoic acid, 4'-hydroxy-γ-oxo-α-(2-phenylethyl)-]	777 nM	> 1250 nM	50 nM		
COC(=O)c1cccc(SCC(CC(=O)c2ccc(-c3ccc(Cl)cc3)cc2)C(=O)O)c1 (stereo not drawn) [Example 432, [1,1'-Biphenyl]-4-butanoic acid, 4'-chloro-α-[[[3-(methoxycarbonyl)phenyl]thio]methyl]-γ-oxo-]	1600 nM	> 1250 nM	236 nM		
O=C(CC(CCCc1ccccc1)C(=O)O)c1ccc(-c2ccc(OCc3ccccn3)cc2)cc1 (stereo not drawn) [Example 110, [1,1'-Biphenyl]-4-butanoic acid, γ-oxo-α-(3-phenylpropyl)-4'-(2-pyridinylmethoxy)-]	37 nM		38 nM	26%	
CCCOc1ccc(-c2ccc(C(=O)CC(CCc3ccccc3)C(=O)O)cc2)cc1 (stereo not drawn) [Example 157, [1,1'-Biphenyl]-4-butanoic acid, γ-oxo-α-(2-phenylethyl)-4'-propoxy-]	111 nM	142 nM	35 nM		
COC(=O)c1cc(F)ccc1SCC(CC(=O)c1ccc(-c2ccc(Cl)cc2)cc1)C(=O)O (stereo not drawn) [Example 434, [1,1'-Biphenyl]-4-butanoic acid, 4'-chloro-α-[[[4-fluoro-2-(methoxycarbonyl)phenyl]thio]methyl]-γ-oxo-]	254 nM	1140 nM	61 nM		
O=C(CC(CCc1ccc(I)cc1)C(=O)O)c1ccc(-c2ccc(Cl)cc2)cc1 (stereo not drawn) [Example 128, [1,1'-Biphenyl]-4-butanoic acid, 4'-chloro-α-[2-(4-iodophenyl)ethyl]-γ-oxo-]	561 nM	715 nM	145 nM		
O=C(CC(CCCCN1C(=O)c2ccccc2C1=O)C(=O)O)c1ccc(-c2ccc(Cl)cc2)cc1 (stereo not drawn) [Example 431, 2H-Isoindole-2-hexanoic acid, α[2-(4'-chloro[1,1'-biphenyl]-4-yl)-2-oxoethyl]-1,3-dihydro-1,3-dioxo-]	38 nM	50 nM	16 nM		
COc1ccc(CSCCC(CC(=O)c2ccc(-c3ccc(Cl)cc3)cc2)C(=O)O)cc1 (stereo not drawn) [Example 427, [1,1'-Biphenyl]-4-butanoic acid, 4'-chloro-α-[2-[[(4-methoxyphenyl)methyl]thio]ethyl]-γ-oxo-]	189 nM	362 nM	42 nM		
